The target in the assay is T1, human recombinant his-tagged HSP90α (Homo sapiens, UniProt P07900).
T1 construct: purchased Prospec Technogene #HSP90
The experiment in a line: HSP90 enzyme assay (HTRF, competition with biotinylated Geldanamycin). As to conditions: IC50 range; read-out: Enzyme Assay. In kind it is binding. An excerpt: An HTRF (homogeneous time resolved fluorescence) assay is used to measure the interaction of the compounds with HSP90. The assay measures binding of biotinylated Geldanamycin (bio-GM; Biomol, #EI-341, lot: A9199a) to human recombinant his-tagged HSP90α (HSP90; Prospec Technogene, #HSP90, lot: 260HSP9001). A signal is generated by fluorescence resonance energy transfer from an Europium-cryptate labeled anti-his antibody (anti-his-K; Cisbio International, #61HISKLA, lot: 33V) via the HSP90-GM-biotin complex to a fluorescence acceptor (allophycocyanin) linked to streptavidin (SA-XL; Cisbio International, #610SAXLB, lot: 089).
Unlabeled GM or compounds compete with the bio-GM for binding to HSP90 resulting in reduced fluorescence energy transfer/assay signal.
A preformed (1 hour incubation) complex of HSP90 with the anti-his-K is added to the compound solution in a 384 well microplate (Corning, #3710) and incubated for 15 minutes. A preformed (1 hour incubation) complex of bio-GM with the SA-XL is added to the wells and incubated for 20 hours. All incubations are performed at room temperature. The final assay volume is 50 μl/well. The final concentrations in the assay are: 50 mM Hepes pH 7.3, 50 mM NaCl, 100 mM KF, 1 mM EDTA, 1 mM DTT, 0.1% Triton-X-100, […] HSP90, 40 nM SA-XL, 40 nM bio-GM. Test compounds are dissolved in DMSO, prediluted in assay buffer and tested at a final concentration between 5000 nM and 0.3 nM. The resulting DMSO concentration is 0.5% and included in all controls. High controls are without test compounds, low controls without test compounds, without HSP90 and without bio-GM. As a reference inhibitor unlabeled GM is used in the same concentrations as the test compounds.
Inhibition is calculated compared to the assay controls using an Excel spreadsheet (Microsoft). IC50 values are calculated by non-linear least squares fitting to the standard dose-response model using GraphPad Prism (GraphPad Software Inc).
Background: Time-resolved FRET reads energy transfer from a long-lived donor to a nearby acceptor.

Molecules are shown by their SMILES.

As to `CC(C)c1cc(C(=O)N2CCC(N[C@H](C(=O)OC(C)(C)C)C3CCCCC3)CC2)c(O)cc1O` [Example 15, tert-butyl (2S)-cyclohexyl[(1-{[2,4-dihydroxy-5-(propan-2-yl)phenyl]carbonyl}piperidin-4-yl)amino]ethanoate], the IC50 was 100 to 1000 nM.

Regarding `CC(C)c1cc(C(=O)N2CCC(CN[C@H](C(=O)OC(C)(C)C)C3CCCCC3)CC2)c(O)cc1O` [Example 31, tert-butyl (2S)-cyclohexyl{[(1-{[2,4-dihydroxy-5-(propan-2-yl)phenyl]carbonyl}piperidin-4-yl)methyl]amino}ethanoate], the IC50 lay within 100 to 1000 nM.

On to `CC(C)c1cc(C(=O)N2CCC(CCN[C@@H](Cc3ccccc3)C(=O)OC(C)(C)C)CC2)c(O)cc1O` [Example 41, tert-butyl N-[2-(1-{[2,4-dihydroxy-5-(propan-2-yl)phenyl]carbonyl}piperidin-4-yl)ethyl]-L-phenylalaninate], for which the IC50 is < 100 nM.

Regarding `CC(C)c1cc(C(=O)N2CCC(CCN[C@@H](C)C(=O)OC(C)(C)C)CC2)c(O)cc1O` [Example 43, tert-butyl N-[2-(1-{[2,4-dihydroxy-5-(propan-2-yl)phenyl]carbonyl}piperidin-4-yl)ethyl]-L-alaninate], the IC50 was < 100 nM.

As for `CC(C)c1cc(C(=O)N2CCC(CCN[C@H](C(=O)OC(C)(C)C)C3CCCCC3)CC2)c(O)cc1O` [Example 49, tert-butyl (2S)-cyclohexyl{[2-(1-{[2,4-dihydroxy-5-(propan-2-yl)phenyl]carbonyl}piperidin-4-yl)ethyl]amino}ethanoate], the IC50 is < 100 nM.

As for `CC(C)c1cc(C(=O)N2CCC(CCN[C@H](C(=O)OC(C)(C)C)c3ccccc3)CC2)c(O)cc1O` [Example 50, tert-butyl (2S)-{[2-(1-{[2,4-dihydroxy-5-(propan-2-yl)phenyl]carbonyl}piperidin-4-yl)ethyl]amino}(phenyl)ethanoate], the IC50 is < 100 nM.

On to `CC(C)c1cc(C(=O)N2CCC(CCN[C@@H](COC(C)(C)C)C(=O)OC(C)(C)C)CC2)c(O)cc1O` [Example 53, tert-butyl O-tert-butyl-N-[2-(1-{[2,4-dihydroxy-5-(propan-2-yl)phenyl]carbonyl}piperidin-4-yl)ethyl]-L-serinate], for which the IC50 is < 100 nM.

Turning to `CCOC(=O)[C@H](C)NCc1ccc2c(c1)CN(C(=O)c1cc(C(C)C)c(O)cc1O)C2` [Example 57, ethyl N-[(2-{[2,4-dihydroxy-5-(propan-2-yl)phenyl]carbonyl}-2,3-dihydro-1H-isoindol-5-yl)methyl]-L-alaninate], the IC50 is < 100 nM.

As for `CC(C)OC(=O)[C@H](C)NCc1ccc2c(c1)CN(C(=O)c1cc(C(C)C)c(O)cc1O)C2` [Example 58, propan-2-yl N-[(2-{[2,4-dihydroxy-5-(propan-2-yl)phenyl]carbonyl}-2,3-dihydro-1H-isoindol-5-yl)methyl]-L-alaninate], the IC50 is < 100 nM.

Take `CC(C)C[C@H](NCc1ccc(CN(C)C(=O)c2cc(C(C)C)c(O)cc2O)cc1)C(=O)O` [Example 77, N-(4-{[{[2,4-dihydroxy-5-(propan-2-yl)phenyl]carbonyl}(methyl)amino]methyl}benzyl)-L-leucine]: the IC50 was < 100 nM.

Take `CC(C)C[C@H](NCc1ccc2c(c1)CN(C(=O)c1cc(C(C)C)c(O)cc1O)C2)C(=O)O` [Example 78, N-[(2-{[2,4-dihydroxy-5-(propan-2-yl)phenyl]carbonyl}-2,3-dihydro-1H-isoindol-5-yl)methyl]-L-leucine]: the IC50 was < 100 nM.

`CC(C)c1cc(C(=O)N2Cc3ccc(CNC(C)(C)C(=O)O)cc3C2)c(O)cc1O` [Example 79, N-[(2-{[2,4-dihydroxy-5-(propan-2-yl)phenyl]carbonyl}-2,3-dihydro-1H-isoindol-5-yl)methyl]-2-methylalanine]: the IC50 was < 100 nM.

Take `CC(C)C[C@H](NCCCc1ccc2c(c1)CN(C(=O)c1cc(C(C)C)c(O)cc1O)C2)C(=O)O` [Example 80, N-[3-(2-{[2,4-dihydroxy-5-(propan-2-yl)phenyl]carbonyl}-2,3-dihydro-1H-isoindol-5-yl)propyl]-L-leucine]: the IC50 was < 100 nM.

For the molecule `CC(C)C[C@H](NCCc1ccc2c(c1)CN(C(=O)c1cc(C(C)C)c(O)cc1O)C2)C(=O)O` [Example 81, N-[2-(2-{[2,4-dihydroxy-5-(propan-2-yl)phenyl]carbonyl}-2,3-dihydro-1H-isoindol-5-yl)ethyl]-L-leucine], the IC50 is < 100 nM.

Regarding `CC(C)c1cc(C(=O)N2Cc3ccc(CN[C@@H](C)C(=O)O)cc3C2)c(O)cc1O` [Example 82, N-[(2-{[2,4-dihydroxy-5-(propan-2-yl)phenyl]carbonyl}-2,3-dihydro-4H-isoindol-5-yl)methyl]-L-alanine], the IC50 was < 100 nM.

As for `CC(C)c1cc(C(=O)N2Cc3ccc(CNC4(C(=O)O)CCCC4)cc3C2)c(O)cc1O` [Example 83, 1-{[(2-{[2,4-dihydroxy-5-(propan-2-yl)phenyl]carbonyl}-2,3-dihydro-1H-isoindol-5-yl)methyl]amino}cyclopentanecarboxylic acid], the IC50 was < 100 nM.

As to `CC(C)C[C@H](NCc1cccc(CN(C)C(=O)c2cc(C(C)C)c(O)cc2O)c1)C(=O)O` [Example 84, N-(3-{[{[2,4-dihydroxy-5-(propan-2-yl)phenyl]carbonyl}(methyl)amino]methyl}benzyl)-L-leucine], the IC50 was < 100 nM.

Turning to `CC(C)c1cc(C(=O)N(C)Cc2ccc(CN[C@H](C(=O)O)c3ccccc3)cc2)c(O)cc1O` [Example 85, (2S)-[(4-{[{[2,4-dihydroxy-5-(propan-2-yl)phenyl]carbonyl}(methyl)amino]methyl}benzyl)amino](phenyl)ethanoic acid], the IC50 is < 100 nM.

For the molecule `CC(C)c1cc(C(=O)N(C)Cc2ccc(CNC(C)(C)C(=O)O)cc2)c(O)cc1O` [Example 86, N-(4-{[{[2,4-dihydroxy-5-(propan-2-yl)phenyl]carbonyl}(methyl)amino]methyl}benzyl)-2-methylalanine], the IC50 was < 100 nM.

Turning to `CC(C)c1cc(C(=O)N(C)Cc2cccc(CNC(C)(C)C(=O)O)c2)c(O)cc1O` [Example 87, N-(3-{[{[2,4-dihydroxy-5-(propan-2-yl)phenyl]carbonyl}(methyl)amino]methyl}benzyl)-2-methylalanine], the IC50 is < 100 nM.

With `CC(C)c1cc(C(=O)N(C)Cc2cccc(CNC3(C(=O)O)CCCC3)c2)c(O)cc1O` [Example 88, 1-[(3-{[{[2,4-dihydroxy-5-(propan-2-yl)phenyl]carbonyl}(methyl)amino]methyl}benzyl)amino]cyclopentanecarboxylic acid], the IC50 was < 100 nM.

For `CC(C)c1cc(C(=O)N(C)Cc2cccc(CN[C@H](C(=O)O)c3ccccc3)c2)c(O)cc1O` [Example 89, (2S)-[(3-{[{[2,4-dihydroxy-5-(propan-2-yl)phenyl]carbonyl}(methyl)amino]methyl}benzyl)amino](phenyl)ethanoic acid], the IC50 is < 100 nM.

With `CC(C)c1cc(C(=O)N2Cc3ccc(CCCNC4(C(=O)O)CCCC4)cc3C2)c(O)cc1O` [Example 90, 1-{[3-(2-{[2,4-dihydroxy-5-(propan-2-yl)phenyl]carbonyl}-2,3-dihydro-1H-isoindol-5-yl)propyl]amino}cyclopentanecarboxylic acid], the IC50 is < 100 nM.

Consider `CC(C)c1cc(C(=O)N(C)Cc2ccc(CCNC(C)(C)C(=O)O)cc2)c(O)cc1O` [Example 91, N-[2-(4-{[{[2,4-dihydroxy-5-(propan-2-yl)phenyl]carbonyl}(methyl)amino]methyl}phenyl)ethyl]-2-methylalanine], for which the IC50 is < 100 nM.

Turning to `CC(C)c1cc(C(=O)N2CCC(CCN[C@@H](C)C(=O)O)CC2)c(O)cc1O` [Example 92, N-[2-(1-{[2,4-dihydroxy-5-(propan-2-yl)phenyl]carbonyl}piperidin-4-yl)ethyl]-L-alanine], the IC50 was < 100 nM.

As for `CC(C)c1cc(C(=O)N2Cc3ccc(CCNC4(C(=O)O)CCCC4)cc3C2)c(O)cc1O` [Example 93, 1-{[2-(2-{[2,4-dihydroxy-5-(propan-2-yl)phenyl]carbonyl}-2,3-dihydro-1H-isoindol-5-yl)ethyl]amino}cyclopentanecarboxylic acid], the IC50 was < 100 nM.

Consider `CC(C)C[C@H](NC[C@@H]1CCCN1C(=O)c1cc(C(C)C)c(O)cc1O)C(=O)O` [Example 94, N-{[(2S)-1-{[2,4-dihydroxy-5-(propan-2-yl)phenyl]carbonyl}pyrrolidin-2-yl]methyl}-L-leucine], for which the IC50 lay in the range of 100 to 1000 nM.

In the case of `CC(C)C[C@H](NC1CCN(C(=O)c2cc(C(C)C)c(O)cc2O)C1)C(=O)O` (stereo partly drawn) [Example 95, N-(1-{[2,4-dihydroxy-5-(propan-2-yl)phenyl]carbonyl}pyrrolidin-3-yl)-L-leucine], the IC50 was < 100 nM.
